Values quoted from earlier work as cited in patent US12692503B2, “Generation of acyl amino acids” (Modular Genetics, Inc., priority 2007, dated 2026).
*1 amine or outer side, *2 acyl side, *3 side chain or, on linkers, in order; H or OH if unused. Where a SMILES comes first, the peptide text is derived from it. Bridges are numbered along the chain shown (N, C = ends). [ ]: non-standard residue; d: D form. X1 = CC(C)CCCCCCCCC[C@H](CC(=O)[*:1])O[*:2]

Conditions: organic solvents and water

Compound: CC(C)CCCCCCCCC[C@@H]1CC(=O)N[C@@H](CCC(=O)O)C(=O)N[C@@H](CC(C)C)C(=O)N[C@H](CC(C)C)C(=O)N[C@@H](C(C)C)C(=O)N[C@@H](CC(=O)O)C(=O)N[C@H](CC(C)C)C(=O)N[C@@H](CC(C)C)C(=O)O1 [surfactin] (EL[dL]VD[dL]L; linker N-C via X1)
- solubility: soluble in both organic solvents and water
